Structures are written as SMILES. A value given as a limit tells only on which side of the number the result lay.

CRBN truncate (318-426), sequence (Q96SW2 318-426): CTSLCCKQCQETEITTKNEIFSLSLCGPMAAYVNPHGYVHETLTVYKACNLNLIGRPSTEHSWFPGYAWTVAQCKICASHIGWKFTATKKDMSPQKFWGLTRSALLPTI

The target of this experiment is CRBN truncate (318-426) (Homo sapiens (Human), UniProt Q96SW2). Briefly: Measurement of molecular interactions using surface plasmon resonance (SPR), Biacore T200. In kind it is binding. The settings on record: 25° C., immobilized CRBN truncate, upper limit of measurement 200 μM. The method, boiled down:
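C-terminally Avi-tagged CRBN (318-426) captured on a streptavidin SA chip on a Biacore T200. Running buffer 10 mM HEPES pH 7.5, 150 mM NaCl, 1 mM TCEP, 0.005% Tween 20, 2% DMSO; 60 s contact, 120 s dissociation.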
For orientation: In SPR one partner is held on a chip, and binding of the other changes the refractive index at the surface.
A word on the Kd: it is the equilibrium constant for the complex coming apart. Molecule `COc1cc([N+](=O)[O-])ccc1N1CCC2(CCCC(=O)NC2=O)C1` (stereo not drawn) [Example 42, 2-(2-Methoxy-4-nitrophenyl)-2,7-diazaspiro[4.6]undecane-6,8-dione] showed an equilibrium dissociation constant (Kd) of 50 to 100 µM. The molecule `Cc1sc2c(c1C)C(c1ccc(Cl)cc1)=N[C@@H](CC(=O)NCCCCCCCCCCC(=O)N1CCC(c3cccc(NC45CCC(CC4)C(=O)NC5=O)c3)CC1)c1nnc(C)n1-2` [Example 355, 2-[(9S)-7-(4-chlorophenyl)-4,5,13-trimethyl-3-thia-1,8,11,12-tetraazatricyclo[8.3.0.02,6]trideca-2(6),4,7,10,12-pentaen-9-yl]-N-[11-[4-[3-[(2,4-dioxo-3-azabicyclo[3.2.2]nonan-1-yl)amino]phenyl]piperidin-1-yl]-11-oxoundecyl]acetamide] showed a Kd of 50 to 100 µM. Under `Cc1ccc(NC(=O)NCCCn2c(=O)n(C3CCCC(=O)NC3=O)c3ccccc32)cc1Cl` (stereo not drawn) [Example 202, 1-(3-Chloro-4-methylphenyl)-3-[3-[3-(2,7-dioxoazepan-3-yl)-2-oxobenzimidazol-1-yl]propyl]urea] stands not below 100 µM; under `CN(C1CCCC(=O)NC1=O)S(=O)(=O)c1ccc(CCCCCCNC(=O)OC(C)(C)C)cc1` (stereo not drawn) [Example 271, tert-Butyl N-[6-[4-[(2,7-dioxoazepan-3-yl)-methylsulfamoyl]phenyl]hexyl]carbamate], not below 100 µM; under `O=C1CCCC2(CCN(c3ccc([N+](=O)[O-])cc3F)C2)C(=O)N1` (stereo not drawn) [Example 83, 2-(2-Fluoro-4-nitrophenyl)-2,7-diazaspiro[4.6]undecane-6,8-dione], less than 50 µM. Under `NC(=O)c1nn(-c2ccc(C(=O)NCCOCCOCCNC(=O)c3ccc(N4CCC5(CCCC(=O)NC5=O)CC4=O)nc3)cc2)cc1NC(=O)c1coc(-c2ccnc(NCC3CC3)c2)n1` (stereo not drawn) [Example 143, N-[3-Carbamoyl-1-[4-[2-[2-[2-[[6-(4,7,9-trioxo-3,8-diazaspiro [5.6]dodecan-3-yl)pyridine-3-carbonyl]amino]ethoxy]ethoxy]ethylcarbamoyl]phenyl]pyrazol-4-yl]-2-[2-(cyclopropylmethylamino)-4-pyridyl]oxazole-4-carboxamide] stands less than 50 µM. For the molecule `CC(C)(C)OC(=O)N1CCC(c2cn(C3CCCC(=O)NC3=O)nn2)CC1` (stereo not drawn) [Example 2, tert-Butyl 4-[1-(2,7-dioxoazepan-3-yl)triazol-4-yl]piperidine-1-carboxylate], the Kd is not below 100 µM. In the case of `CN(C(=O)c1cccc(-c2ccccc2)c1)C1CCCC(=O)NC1=O` (stereo not drawn) [Example 20, N-(2,7-Dioxoazepan-3-yl)-N-methyl-3-phenylbenzamide] it was not below 100 µM; in that of `COC(=O)c1ccc(CN2CCC3(CCCC(=O)NC3=O)C2)cc1` (stereo not drawn) [Example 34, Methyl 4-[(6,8-dioxo-2,7-diazaspiro[4.6]undecan-2-yl)methyl]benzoate], not below 100 µM. `CC(C)(C)OC(=O)NCCCCCN1CC2(CC(=O)N(C3CCC(=O)NC3=O)C2=O)C1` (stereo not drawn) [Example 50, tert-Butyl N-[5-[6-(2,6-dioxopiperidin-3-yl)-5,7-dioxo-2,6-diazaspiro[3.4]octan-2-yl]pentyl]carbamate] yielded a Kd not below 100 µM. Regarding `Cn1c(=O)n(C2CCCC(=O)NC2=O)c2ccc(C3CCN(CC(=O)OC(C)(C)C)CC3)cc21` (stereo not drawn) [Example 219, tert-Butyl 2-[4-[1-(2,7-dioxoazepan-3-yl)-3-methyl-2-oxobenzimidazol-5-yl]piperidin-1-yl]acetate], the Kd is less than 50 µM. Under `CN(C1CCCC(=O)NC1=O)S(=O)(=O)c1ccc(CNC(=O)OC(C)(C)C)cc1` (stereo not drawn) [Example 27, tert-Butyl N-[[4-[(2,7-dioxoazepan-3-yl)-methylsulfamoyl]phenyl]methyl]carbamate] stands not below 100 µM; under `Cn1c(=O)n(C2CCCC(=O)NC2=O)c(=O)c2ccc(Br)cc21` (stereo not drawn) [Example 261, 7-Bromo-3-(2,7-dioxoazepan-3-yl)-1-methylquinazoline-2,4-dione], 50 to 100 µM; under `O=C1CCCC2(CCN(c3nc4ccc([N+](=O)[O-])cc4s3)C2)C(=O)N1` (stereo not drawn) [Example 72, 2-(6-Nitro-1,3-benzothiazol-2-yl)-2,7-diazaspiro [4.6]undecane-6,8-dione], less than 50 µM. In the case of `CC(C)(C)OC(=O)N1CCN(C2CCCC(=O)NC2=O)C(=O)C1` (stereo not drawn) [Example 29-1, tert-Butyl 4-(2,7-dioxoazepan-3-yl)-3-oxopiperazine-1-carboxylate] it was not below 100 µM. As to `CC(C)(C)OC(=O)CCCCCNc1ccc(C(=O)N2CCC3(CCCC(=O)NC3=O)C2)cc1` (stereo not drawn) [Example 300, tert-Butyl 6-[4-(6,8-dioxo-2,7-diazaspiro[4.6]undecane-2-carbonyl)anilino]hexanoate], the Kd was less than 50 µM.

Molecule `CC(C)(C)OC(=O)NCCCCCCc1cccc2c(C(=O)N3CCC4(CCCC(=O)NC4=O)C3)cccc12` (stereo not drawn) [Example 161, tert-Butyl N-[6-[5-(6,8-dioxo-2,7-diazaspiro[4.6]undecane-2-carbonyl)naphthalen-1-yl]hexyl]carbamate] displayed a Kd of 50 to 100 µM. On to `CC(C)(C)OC(=O)c1ccc(N2CCC3(CCCC(=O)NC3=O)C2)cc1` (stereo not drawn) [Example 128, tert-Butyl 4-(6,8-dioxo-2,7-diazaspiro [4.6]undecan-2-yl) benzoate], for which the Kd was less than 50 µM.

`CC(C)(C)OC(=O)c1ccc(N2CCC3(CCCC(=O)NC3=O)CC2=O)nc1` (stereo not drawn) [Example 108, tert-Butyl 6-(4,7,9-trioxo-3,8-diazaspiro [5.6]dodecan-3-yl) pyridine-3-carboxylate]: the Kd lay within 50 to 100 µM.

Take `CC(C)(C)OC(=O)NCCCCCCc1cccc(C(=O)N2CCC3(CCCC(=O)NC3=O)C2)c1` (stereo not drawn) [Example 158, tert-Butyl N-[6-[3-(6,8-dioxo-2,7-diazaspiro[4.6]undecane-2-carbonyl)phenyl]hexyl]carbamate]: the Kd was in the range of 50 to 100 µM. Under `O=C1CCOC(c2cccc(Br)c2)C(=O)N1` (stereo not drawn) [Example 19, 2-(3-Bromophenyl)-1,4-oxazepane-3,5-dione] stands not below 100 µM; under `NC(=O)c1nn(-c2ccc(C(=O)NCCOCCOCCNC(=O)c3ccnc(N4CCC5(CCCC(=O)NC5=O)C4)c3)cc2)cc1NC(=O)c1coc(-c2ccnc(NCC3CC3)c2)n1` (stereo not drawn) [Example 142, N-[3-Carbamoyl-1-[4-[2-[2-[2-[[2-(6,8-dioxo-2,7-diazaspiro [4.6]undecan-2-yl)pyridine-4-carbonyl]amino]ethoxy]ethoxy]ethylcarbamoyl]phenyl]-pyrazol-4-yl]-2-[2-(cyclopropylmethylamino)-4-pyridyl]oxazole-4-carboxamide], less than 50 µM.

In turn, `Cc1sc2c(c1C)C(c1ccc(Cl)cc1)=N[C@@H](CC(=O)NCCCCCCc1ccc(S(=O)(=O)N(C)C3CCCC(=O)NC3=O)cc1)c1nnc(C)n1-2` (stereo partly drawn) [Example 311, 2-[(9S)-7-(4-chlorophenyl)-4,5,13-trimethyl-3-thia-1,8,11,12-tetraazatricyclo[8.3.0.02,6]trideca-2(6),4,7,10,12-pentaen-9-yl]-N-[6-[4-[(2,7-dioxoazepan-3-yl)-methylsulfamoyl]phenyl]hexyl]acetamide] gave a Kd of less than 50 µM. Consider `O=C1CCCC(n2c(=O)ccc3cc(Br)ccc32)C(=O)N1` (stereo not drawn) [Example 257, 3-(6-Bromo-2-oxoquinolin-1-yl)azepane-2,7-dione], for which the Kd was not below 100 µM.

Turning to `O=C1CCCC2(CCN(C(=O)c3ccccc3)CC2)C(=O)N1` [Example 106, 3-Benzoyl-3,8-diazaspiro [5.6]dodecane-7,9-dione], the Kd is not below 100 µM. In turn, `COc1c(OCC(=O)OC(C)(C)C)cccc1C(=O)NC1CCCC(=O)NC1=O` (stereo not drawn) [Example 68, tert-Butyl 2-[3-[(2,7-dioxoazepan-3-yl)carbamoyl]-2-methoxyphenoxy]acetate] gave a Kd not below 100 µM.

With `Cc1sc2c(c1C)C(c1ccc(Cl)cc1)=N[C@@H](CC(=O)NCCCCCCCCNC(=O)CCc1ccc3c(=O)n(C4CCCC(=O)NC4=O)c(=O)n(C)c3c1)c1nnc(C)n1-2` (stereo partly drawn) [Example 344, N-[8-[[2-[(9S)-7-(4-chlorophenyl)-4,5,13-trimethyl-3-thia-1,8,11,12-tetraazatricyclo[8.3.0.02,6]trideca-2(6),4,7,10,12-pentaen-9-yl]acetyl]amino]octyl]-3-[3-(2,7-dioxoazepan-3-yl)-1-methyl-2,4-dioxo-quinazolin-7-yl]propanamide], the Kd was less than 50 µM. `CC(=O)Nc1cccc(C2(C)CCCC(=O)NC2=O)c1` (stereo not drawn) [Example 134, N-[3-(3-Methyl-2,7-dioxoazepan-3-yl)phenyl]acetamide]: the Kd fell in the range of 50 to 100 µM.

On to `Cn1c(-c2ccc(CCC(=O)OC(C)(C)C)cc2)nn(C2CCCC(=O)NC2=O)c1=O` (stereo not drawn) [Example 266, tert-Butyl 3-[4-[1-(2,7-dioxoazepan-3-yl)-4-methyl-5-oxo-1,2,4-triazol-3-yl]phenyl]propanoate], for which the Kd was not below 100 µM. Under `Nc1ccc2nc(N3CCCC(=O)NC3=O)sc2c1` [Example 118, 1-(6-Amino-1,3-benzothiazol-2-yl)-1,3-diazepane-2,4-dione] stands not below 100 µM; under `CC(C)(C)OC(=O)N1CCC(c2cnc(N3CCC4(CCCC(=O)NC4=O)C3)nc2)CC1` (stereo not drawn) [Example 168-2, tert-Butyl 4-[2-(6,8-dioxo-2,7-diazaspiro [4.6]undecan-2-yl)pyrimidin-5-yl]piperidine-1-carboxylate], less than 50 µM; under `Cc1sc2c(c1C)C(c1ccc(Cl)cc1)=N[C@@H](CC(=O)NCCCCCCCCNC(=O)CCc1cccc3c(=O)n(C4CCCC(=O)NC4=O)ccc13)c1nnc(C)n1-2` (stereo partly drawn) [Example 343, N-[8-[[2-[(9S)-7-(4-chlorophenyl)-4,5,13-trimethyl-3-thia-1,8,11,12-tetraazatricyclo[8.3.0.02,6]trideca-2(6),4,7,10,12-pentaen-9-yl]acetyl]amino]octyl]-3-[2-(2,7-dioxoazepan-3-yl)-1-oxoisoquinolin-5-yl]propanamide], less than 50 µM. In the case of `CC1(N2CCCC(=O)NC2=O)C(=O)N(CC(=O)O)c2ccccc21` (stereo not drawn) [Example 292, 2-[3-(2,4-dioxo-1,3-diazepan-1-yl)-3-methyl-2-oxoindol-1-yl]acetic acid] it was not below 100 µM.

The values are drawn from patent publication US20250388593A1 (MITSUBISHI TANABE PHARMA CORPORATION, priority 2023, published 2025).
